Assay results as given in patent publication US11059778B2, “Cannabinoid receptor CB2 ligand 4-(aminomethyl)-N, N-dialkylanilines” (UNIVERSITY OF PITTSBURGH—OF THE COMMONWEALTH SYSTEM OF …, priority 2015, dated 2021).
“Also recorded” adds a separate entry of the source.

How the values were obtained:
human CB1 receptors = biological target: T1, human CB1 receptors (Homo sapiens, UniProt P21554); assay: [3H]CP-55,940 radioligand competition binding assay, CB1; conditions: CHO cell membranes, [3H]CP-55,940 displacement
T1 construct: expressed in transfected cells
T1 sequence (P21554 whole entry): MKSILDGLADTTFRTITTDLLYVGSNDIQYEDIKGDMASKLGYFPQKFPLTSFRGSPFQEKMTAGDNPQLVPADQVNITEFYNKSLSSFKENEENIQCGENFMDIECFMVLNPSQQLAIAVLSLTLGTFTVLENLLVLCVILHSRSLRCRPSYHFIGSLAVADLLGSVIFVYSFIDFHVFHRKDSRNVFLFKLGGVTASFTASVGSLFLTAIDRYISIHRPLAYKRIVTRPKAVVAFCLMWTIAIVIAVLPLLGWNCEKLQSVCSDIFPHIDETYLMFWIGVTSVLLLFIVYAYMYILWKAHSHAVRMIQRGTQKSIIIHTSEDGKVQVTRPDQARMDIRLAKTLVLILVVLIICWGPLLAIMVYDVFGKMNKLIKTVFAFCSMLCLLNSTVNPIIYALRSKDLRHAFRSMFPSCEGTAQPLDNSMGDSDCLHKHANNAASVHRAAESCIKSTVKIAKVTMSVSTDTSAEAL
Procedure: (§1) Binding assay. The bioassay is carried out using the Perkin Elmer 96-well Top Counter. This bioassay is also known as a competition binding assay and the biological evaluation is to determine the CB receptor binding affinity (Ki) of the screened ligands by displacing [^3H]-CP-55940 (or other radioligands). The brief procedure is given below.
(§2) Perkin Elmer 96-well TopCounter is used at PMLSC and in our laboratory to determine the CB receptor binding affinity (Ki) of the in-silico screened ligands by displacing [^3H]-CP-55,940 (or other radioligands). In competition binding experiments, the tested compound dilutions are carried out in triplicate in TME buffer (25 mM Tris, 5 mM MgCl2, 1 mM EDTA) containing 0.1% (w/v) fatty acid free bovine serum albumin (BSA), pH 7.4. Various concentrations of the tested compound are added in the same volume to 0.5 nM [^3H]CP-55,940. TME buffer and cell membrane preparations expressing CB receptors (2.5 μg per well) are added to a final volume of 200 μL. For the saturation binding experiments, varying concentrations of [^3H]CP-55,940 (0.05-1.5 nM) with or without 2 μM of unlabeled ligands (CP-55,940 or WIN-55,212-2) are incubated with the receptor membrane preparations to determine Kd and nonspecific binding. After the binding suspensions are incubated at 30° C. for 1 hr, the reaction is terminated by rapid filtration through microfiltration plates coated with 0.5% polyethylenimine (Unifilter GF/B filterplate, PerkinElmer) followed by 5 washes with ice cold TME buffer containing 0.5% BSA on a Packard Filtermate Harvester (PerkinElmer). The plates are then dried overnight and 30 μl MicroScint 0 scintillation cocktail are added to each well of the dried filter plates. Then the bound radioactivity is counted using a Perkin Elmer 96-well TopCounter. The Ki is calculated by using nonlinear regression analysis (Prism 5; GraphPad Software Inc., San Diego, Calif.), with the Kd values for [^3H]CP-55,940 determined from saturation binding experiments. This assay is used for determining binding affinity parameters (Ki) of ligand-receptor interactions for the CB receptor.
(§3) The affinities of the synthesized ligands were determined in radioligand binding studies at human CB1 and CB2 receptors using [3H](—)-cis-3-[2-hydroxy-4-(1,1 dimethylheptyl)phenyl]-trans-4-(3-hydroxypropyl) cyclohexanol (CP55,940) as a CB receptor radioligand. As a source for human CB1 and CB2 receptors, membrane preparations of Chinese hamster ovary (CHO) cells stably expressing the respective receptor subtype were utilized (50 μg of protein/vial). CB2 selective ligand SR144528 (CB2 inverse agonist) and CB1 ligand SR141716 (CB1 inverse agonist) were used as positive controls, respectively, along with the tested compounds in bioassays experiments. Only compounds with high CB2 receptor binding potency was chosen to carry out the CB1 binding assay. CB ligand competition binding assay was carried out as described previously in Gertsch, J., et al., Beta-caryophyllene is a dietary cannabinoid. Proc Natl Acad Sci USA 2008, 105 (26), 9099-104. Briefly, non-radioactive (or cold) ligands (synthesized derivatives and reference ligands) were diluted in a binding buffer (50 mM Tris-HCl (pH 7.4), 5 mM MgC12, 2.5 mM EGTA, and 0.1% (w/v) fatty acid free BSA), supplemented with 10% dimethyl sulfoxide and 0.4% methyl cellulose. Each assay plate well contained a total of 200 μL of reaction mixture composed of 5 μg of CB1 (or 2.5 μg CB2) membrane protein, labeled [3H]-CP-55,940 ligand at a final concentration of 2.5 nM, and the unlabeled ligand at its varying dilutions as stated above. Plates were incubated at 30° C. for 1 hour with gentle shaking.
(§4) The reaction was terminated by rapid filtration through Unifilter GF/B filter plates using a Unifilter Cell Harvester (PerkinElmer). After the plate was allowed to dry overnight, 30 μL MicroScint-0 cocktail (PerkinElmer) was added to each well, and the radioactivity was counted using a PerkinElmer TopCounter. […]

[1] = tested on: RANKL-induced osteoclast differentiation of C57BL/6 mouse bone marrow cells; assay: In-vitro osteoclast formation assay (RANKL-induced, TRAP staining); assay type: cell-based; conditions: for effect on RANKL-induced osteoclast formation (in words): RANKL 100 ng/mL, M-CSF 30 ng/mL, concentration series up to 10 μM, FIG. 5; for inhibition at 10 µM: Mus musculus, Osteoclast, read-out: inhibition rates of osteoclast formation
Procedure: FIGS. 5A and 5B relate to […]. Anti-osteoclastogenesis activity of the synthesized CB2 ligands. […] FIG. 5B: BM cells were seeded at a density of 2×10^5 cells/well in 96-well plates and treated with or without RANKL (100 ng/mL) and M-CSF (30 ng/mL). CB2 compounds were added at the indicated concentrations for 10 days and stained for TRAP expression. Data is the mean of three experiments carried out in triplicates. (B) Microscopic photographs of cells for compound 15 (magnification 100×).
Bone marrow (BM) cells were obtained from the tibia and femur of 4- to 6-week old C57BL/6 mice. To examine the effects of our selective CB2 ligands, BM cells were seeded at 2×10^5 cells/well in 96-well plates in 100 μIL/well Alpha-MEM media (Gibco Laboratories, Grand Island, N.Y.) containing 15% fetal bovine serum (FBS) (Gibco Laboratories, Grand Island, N.Y.), 30 ng/mL M-CSF (R&D Systems, USA), and 100 ng/mL RANKL (ProsPec, East Brunswick, N.J.). Plates were cultured for 7-10 days. Half media was changed every third day with or without CB2 ligands. At the end of the experiment, cells were fixed and stained with tartrate-resistant acid […] (TRAP) (Sigma-Aldrich, USA), according to manufacturer's protocol. TRAP-positive cells with ≥3 nuclei were counted as osteoclasts ((a) Feng, R., et al., SDX-308, a nonsteroidal anti-inflammatory agent, inhibits NF-kappaB activity, resulting in strong inhibition of osteoclast formation/activity and multiple myeloma cell growth. Blood 2007, 109 (5), 2130-8; (b) Yu, M., et al., Curcumol suppresses RANKL-induced osteoclast formation by attenuating the JNK signaling pathway. Biochem Biophys Res Commun 2014, 447 (2), 364-70; (c) Feng, R., et al., KD5170, a novel mercaptoketone-based histone deacetylase inhibitor, exerts antimyeloma effects by DNA damage and mitochondrial signaling. Mol Cancer Ther 2008, 7 (6), 1494-505.).

human CB2 receptors = biological target: T2, human CB2 receptors (Homo sapiens, UniProt P34972); assay: [3H]CP-55,940 radioligand competition binding assay, CB2; conditions: for Ki: CHO cell membranes, [3H]CP-55,940 displacement
T2 construct: expressed in transfected cells
T2 sequence (P34972 whole entry): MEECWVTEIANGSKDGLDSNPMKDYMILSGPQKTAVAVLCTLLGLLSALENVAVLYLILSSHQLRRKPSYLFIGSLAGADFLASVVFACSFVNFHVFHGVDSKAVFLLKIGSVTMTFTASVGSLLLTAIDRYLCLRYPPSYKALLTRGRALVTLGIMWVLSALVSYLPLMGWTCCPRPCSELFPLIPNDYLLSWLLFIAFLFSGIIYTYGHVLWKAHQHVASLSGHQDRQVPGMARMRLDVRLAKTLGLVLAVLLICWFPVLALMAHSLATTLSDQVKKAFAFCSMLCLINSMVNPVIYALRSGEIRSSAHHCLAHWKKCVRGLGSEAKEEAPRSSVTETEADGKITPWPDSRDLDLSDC
Procedure: as §1, §2, §3, §4

Row | SMILES | Ki (human CB1 receptors) | effect on RANKL-induced osteoclast formation (in words) [1] | SI: selectivity index for CB2, calculated as Ki(CB1)/Ki(CB2) ratio (human CB2 receptors) | Ki (human CB2 receptors) | inhibition at 10 µM [1]
1 | CCN(CC)c1ccc(CN(Cc2cc(OC)c(OC)c(OC)c2)C(=O)c2cccs2)cc1 [Compound 11, N-(4-(diethylamino)benzyl)-N-(3,4,5-trimethoxybenzyl)thiophene-2-carboxamide] | 3280 nM | induction of osteoclast formation at higher doses; also recorded: low effect in inducing the osteoclast formation at higher doses | 31 | 107 nM | –
2 | CCN(CC)c1ccc(CN(Cc2cc(OC)c(OC)c(OC)c2)S(=O)(=O)c2ccc(C=O)cc2)cc1 [Compound 18, N-(4-(diethylamino)benzyl)-4-formyl-N-(3,4,5-trimethoxybenzyl)benzenesulfonamide] | 2290 nM | concentration-dependent inhibition of osteoclast formation; also recorded: inhibited the RANKL-induced osteoclast differentiation in a dose-dependent manner | 9 | 242 nM | > 95%
3 | CCN(CC)c1ccc(CN(Cc2cc(OC)c(OC)c(OC)c2)S(=O)(=O)/C=C/c2ccccc2)cc1 [Compound 15, (E)-N-(4-(diethylamino)benzyl)-2-phenyl-N-(3,4,5-trimethoxybenzyl)ethene-1-sulfonamidebenzenesulfonamide] | > 20000 nM | concentration-dependent inhibition of osteoclast formation; also recorded: inhibited the RANKL-induced osteoclast differentiation in a dose-dependent manner | 145 | 138 nM | > 95%
